The test system of one data set is Swiss CD-1 female mice. Kind of data set: Nephrotoxicity study, histopathological scoring of kidney lesions. The class given is in vivo. Details: key to Group Score (GS): mean of per-animal summed 0-4 lesion scores; higher = more nephrotoxic; key to Animal Score (AS), Partial AS: sum of 0-4 lesion parameter scores; higher = more nephrotoxic. Particulars: for nephrotoxicity in mice, in words: nephrotoxicity tests carried out in mice, statement of the background. Here is the method: Swiss CD-1 female mice weighing approximately 20-24 g (JANVIER Labs) were used, housed in an individually ventilated cage system under specific pathogen-free conditions, and water and food supplied ad libitum. This study plan and the conduct of the study were subjected to review by the Scientific Park of Barcelona Ethical Review Process with the current study procedure Code CEEA (AR) 9377-P2. Mice were administered at a dose of 12 mg/Kg every 2 hours for a total of 6 administrations (total dose 72 mg/Kg), unless otherwise stated. After 20 h, animals were anesthesized with isoflurane, kidneys extracted and prepared for histopathological evaluation, and finally animales were sacrificed. Kidney lesions (tubule dilation, necrosis, tubule casts, cell vacuolization, cell desquamation, and cell swelling) were quantified by microscopical observation (see for instance, Roberts, ACS Infect. Dis., 2015, 1, 568). Each one of these parameters was scored with values from 0 to 4 for each animal, as a global result of observations in kidney. Partial scores have been added up to obtain a final score for each animal (Animal Score, AS). The mean of animal score has been obtained to define the Group Score (GS). The higher the score, the more nephrotoxic a compound is. The nephrotoxicity score has been determined as according to the following table of approximated values: […]

The conditions of data set [1]: in vivo; cited from earlier work.
For a further data set, the system named is E. coli ATCC 25922. The conditions noted are these: comparative examples, extracted from Scientific Reports 5:10558 or WO2017093210A1; cited from earlier work.
Another data set relates to E. coli MB1410. The conditions noted are these: comparative examples, extracted from Scientific Reports 5:10558 or WO2017093210A1; cited from earlier work.
A further data set relates to K. pneumoniae MB674. The conditions noted are these: comparative examples, extracted from Scientific Reports 5:10558 or WO2017093210A1; cited from earlier work.
In another data set the test system is P. aeruginosa ATCC 27853. The conditions noted are these: comparative examples, extracted from Scientific Reports 5:10558 or WO2017093210A1; cited from earlier work.
In a further data set the test system is P. aeruginosa 36A. Particulars: comparative examples, extracted from Scientific Reports 5:10558 or WO2017093210A1; cited from earlier work.
For data set [2] the following is noted: cited from earlier work.
Setting [3] is: Table 8, 12 mg/Kg every 2 hours × 6 sc, total 72 mg/Kg, 3 mice.
Setting [4] is: Table 6, sum of mouse scores, 12 mg/Kg every 2 hours × 6, subcutaneous, total 72 mg/Kg.

Turning to “Decanoyl-Dab-Thr-Dab-cyclo(S-S)[Cys-Dab-DPhe-Nle-Dab-Dab-DCys] [compound 2]”, in the data set with Swiss CD-1 female mice (setting [3]), the “AS, Partial AS” value came to 4; the “Cell vacuolization, Partial AS” value amounted to 0; the “Cloudy swelling, Partial AS” value is 3; the “Group Score (GS)” value came to 4. Further, in the data set on Swiss CD-1 female mice (setting [3]), the Mice found dead is recorded as 2 dead; the “Tubular casts, Partial AS” value is given as 0; the “Tubular dilaion, Partial AS” value stood at 1; the “Tubular necrosis, Partial AS” value turned out to be 0. For the same substance, the “nephrotoxicity in mice, in words” value in the data set with Swiss CD-1 female mice (listed as Decanoyl-Dab-Thr-Dab-ciclo(S—S)[Cys-Dab-DPhe-Nle-Dab-Dab-DCys)) is reported as “showed toxicity”. Also, the “nephrotoxicity in mice, in words” value with Swiss CD-1 female mice (listed as Decanoyl-Dab-Thr-Dab-cyclo(S—S)[Cys-Dab-DPhe-Leu-Dab-Dab-DCys]) was “showed nephrotoxicity”. For the same substance, the “toxicity in acute toxicity tests, in words” value in data set [1] is recorded as “did not showed toxicity”.
As for Polymyxin B [PxB], in the data set with Swiss CD-1 female mice (Table 6, 12 mg/Kg every 2 hours × 6, subcutaneous, total 72 mg/Kg), the Mice found dead result is “None”. The “Group Score (GS)” value with Swiss CD-1 female mice (Table 6, mean of animal scores, 12 mg/Kg every 2 hours × 6, subcutaneous, total 72 mg/Kg) was found to be 3.4. Also, in the data set with Swiss CD-1 female mice (setting [4]), the “Cell desquamation, Partial AS” value came out at 0; the “Cell vacuolization, Partial AS” value amounted to 1; the “Cloudy swelling, Partial AS” value is 21; the “Tubular casts, Partial AS” value is given as 3. For the same substance, in the data set on Swiss CD-1 female mice (setting [4]), the “Tubular dilation, Partial AS” value turned out to be 1 and the “Tubular necrosis, Partial AS” value is given as 1. Further, in the data set on Swiss CD-1 female mice (Table 6, sum over all mice, 12 mg/Kg every 2 hours × 6, subcutaneous, total 72 mg/Kg), the “Animal Score (AS), Partial AS” value is reported as 27. Besides, in the data set with Swiss CD-1 female mice (setting [3]), the “AS, Partial AS” value is 7; the “Cell vacuolization, Partial AS” value came out at 0; the “Cloudy swelling, Partial AS” value is recorded as 6; the “Group Score (GS)” value is on record as 2.3. For the same substance, in the data set on Swiss CD-1 female mice (setting [3]), the Mice found dead entry is on record as “none”; the “Tubular casts, Partial AS” value is given as 0; the “Tubular dilaion, Partial AS” value is 1; the “Tubular necrosis, Partial AS” value was 0. Further, the “antibacterial activity (MIC)” value with E. coli ATCC 25922 is 0.25 µg/mL. Further, the “antibacterial activity (MIC)” value in the data set on E. coli MB1410 is 0.5 µg/mL. Further, the “antibacterial activity (MIC)” value in the data set on K. pneumoniae MB674 was 0.25 µg/mL. Also, the “antibacterial activity (MIC)” value with P. aeruginosa ATCC 27853 was 1 µg/mL. Besides, in the data set on P. aeruginosa 36A, the “antibacterial activity (MIC)” value was 1 µg/mL. For the same substance, the “kidney concentration relative to serum concentration” value in data set [2] (after 6 h) was “more than 30 time”. In addition, the “period of accumulation in kidneys” value in data set [2] (long after administration, when barely detectable in serum) is “at least 48 h”.
